In ChEMBL document CHEMBL4411281, “Unravel a neuroactive sHA sulfation pattern with neurogenesis activity by a library of defined oligosaccharides” (Eur J Med Chem, 2019):
Activity calls are given as the source filed them. The rule behind the calls is not given here.

Experiments:
Midkine (Homo sapiens) = biological target: T1, Midkine (Homo sapiens) (UniProt P21741); assay: Binding affinity to MDK (unknown origin) at 800 nM by SPR assay
T1 sequence (whole entry): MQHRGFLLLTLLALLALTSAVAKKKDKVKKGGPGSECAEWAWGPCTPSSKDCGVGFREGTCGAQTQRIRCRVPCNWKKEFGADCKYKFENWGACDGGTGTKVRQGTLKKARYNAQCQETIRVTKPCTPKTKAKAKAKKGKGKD

[1] = biological target: Fibroblast growth factor 1 (Homo sapiens) (UniProt P05230); assay: Binding affinity to FGF-1 (unknown origin) at 800 nM by SPR assay
[2] = biological target: T2, Neurotrophic factor BDNF precursor form (Homo sapiens) (UniProt P23560); assay: Binding affinity to BDNF (unknown origin) at 800 nM by SPR assay
T2 sequence (whole entry): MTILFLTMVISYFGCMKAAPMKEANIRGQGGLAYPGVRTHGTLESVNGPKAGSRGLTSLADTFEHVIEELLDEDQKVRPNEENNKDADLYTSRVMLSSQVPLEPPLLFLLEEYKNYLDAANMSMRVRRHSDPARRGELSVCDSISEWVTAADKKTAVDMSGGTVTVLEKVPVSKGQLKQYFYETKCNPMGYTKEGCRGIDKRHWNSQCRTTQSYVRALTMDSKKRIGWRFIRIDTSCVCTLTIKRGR

[3] = biological target: T3, Pleiotrophin (Homo sapiens) (UniProt P21246); assay: Binding affinity to PTN (unknown origin) at 800 nM by SPR assay
T3 sequence (whole entry): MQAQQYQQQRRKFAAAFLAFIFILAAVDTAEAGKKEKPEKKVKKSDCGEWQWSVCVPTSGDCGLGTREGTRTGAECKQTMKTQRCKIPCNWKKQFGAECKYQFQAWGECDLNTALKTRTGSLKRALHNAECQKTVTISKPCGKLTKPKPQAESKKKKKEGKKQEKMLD

[4] = Induction of neurite outgrowth in Sprague-Dawley E18 rat hippocampal neurons assessed as neurite length after 24 hrs by DAPI staining-based assay relative to control; format: functional, Hippocampal neurone
Hippocampal neurone [5] = assay: Induction of neurite outgrowth in Sprague-Dawley E18 rat hippocampal neurons assessed as neurite length after 24 hrs in presence of anti-MDK antibody by DAPI staining-based assay relative to control; format: functional, cell-based
Midkine = biological target: T4, Midkine (Homo sapiens, UniProt P21741); assay: Binding affinity to MDK (unknown origin) by SPR assay
T4 sequence (P21741 whole entry): T1 sequence (whole entry)

[6] = biological target: T5, Neurotrophic factor BDNF precursor form (Homo sapiens, UniProt P23560); assay: Binding affinity to BDNF (unknown origin) by SPR assay
T5 sequence (P23560 whole entry): T2 sequence (whole entry)

Pleiotrophin = biological target: T6, Pleiotrophin (Homo sapiens, UniProt P21246); assay: Binding affinity to PTN (unknown origin) by SPR assay
T6 sequence (P21246 whole entry): T3 sequence (whole entry)

Hippocampal neurone [7] = assay: Induction of neurite outgrowth in Sprague-Dawley E18 rat hippocampal neurons assessed as neurite length at 250 ug/ml solubilized in culture media after 24 hrs by DAPI staining-based assay relative to control; format: functional, cell-based
Hippocampal neurone [8] = assay: Induction of neurite outgrowth in Sprague-Dawley E18 rat hippocampal neurons assessed as neurite length after 24 hrs in presence of anti-BDNF antibody by DAPI staining-based assay relative to control; format: functional, cell-based
Hippocampal neurone [9] = assay: Induction of neurite outgrowth in Sprague-Dawley E18 rat hippocampal neurons assessed as neurite length at 50 ug/ml in presence of Proteus vulgaris Chondroitinase ABC after 12 hrs by DAPI staining-based assay relative to control; format: functional, cell-based

Fibroblast growth factor 1 (Homo sapiens), sequence (P05230 whole entry): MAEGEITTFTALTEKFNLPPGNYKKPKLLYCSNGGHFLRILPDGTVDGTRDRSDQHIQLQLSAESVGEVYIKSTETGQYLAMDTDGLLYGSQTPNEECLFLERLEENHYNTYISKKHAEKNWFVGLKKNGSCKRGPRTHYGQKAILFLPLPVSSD

Row | Structure (SMILES) | Activity (Midkine (Homo sapiens)) | Activity [1] | Activity [2] | Activity [3] | Activity [4] | Activity (Hippocampal neurone [5]) | Kd (Midkine) | Kd [6] | Kd (Pleiotrophin) | Activity (Hippocampal neurone [7]) | Activity (Hippocampal neurone [8]) | Activity (Hippocampal neurone [9])
1 | CC(=O)N[C@H]1[C@H](O[C@H]2[C@H](O)[C@@H](O)[C@H](O[C@H]3[C@@H](O)[C@@H](COS(=O)(=O)O)O[C@@H](OCCCCCCN=[N+]=[N-])[C@@H]3NC(C)=O)O[C@@H]2C(=O)O)O[C@H](COS(=O)(=O)O)[C@H](O)[C@@H]1O[C@@H]1O[C@H](C(=O)O)[C@@H](O)[C@H](O)[C@H]1O | inactive | inactive | inactive | inactive | 1% | – | – | – | – | – | – | –
2 | CC(=O)N[C@H]1[C@H](O[C@H]2[C@H](O)[C@@H](O)[C@H](O[C@@H]3[C@@H](NC(C)=O)[C@H](OCCCCCCN=[N+]=[N-])O[C@H](CO)[C@H]3OS(=O)(=O)O)O[C@@H]2C(=O)O)O[C@H](CO)[C@@H](OS(=O)(=O)O)[C@@H]1O[C@@H]1O[C@H](C(=O)O)[C@@H](O)[C@H](O)[C@H]1O | inactive | inactive | inactive | inactive | – | – | – | – | – | – | – | –
3 | CC(=O)N[C@H]1[C@H](O[C@H]2[C@H](O)[C@@H](O)[C@H](O[C@H]3[C@H](O)[C@@H](CO)O[C@@H](OCCCCCCN=[N+]=[N-])[C@@H]3NC(C)=O)O[C@@H]2C(=O)O)O[C@H](CO)[C@@H](O)[C@@H]1O[C@@H]1O[C@H](C(=O)O)[C@@H](O)[C@H](O)[C@H]1O | inactive | inactive | inactive | inactive | – | – | – | – | – | – | – | –
4 | CC(=O)N[C@H]1[C@H](O[C@H]2[C@H](O)[C@@H](O)[C@H](O[C@H]3[C@H](O)[C@@H](COS(=O)(=O)O)O[C@@H](OCCCCCCN=[N+]=[N-])[C@@H]3NC(C)=O)O[C@@H]2C(=O)O)O[C@H](COS(=O)(=O)O)[C@@H](O)[C@@H]1O[C@@H]1O[C@H](C(=O)O)[C@@H](O)[C@H](O)[C@H]1O | – | inactive | – | – | 27.3% | inactive | 52.3 nM | 490 nM | 77.8 nM | inactive | inactive | –
5 | CC(=O)N[C@H]1[C@H](O[C@H]2[C@H](O)[C@@H](O)[C@H](O[C@@H]3[C@@H](NC(C)=O)[C@H](OCCCCCCN=[N+]=[N-])O[C@H](COS(=O)(=O)O)[C@H]3OS(=O)(=O)O)O[C@@H]2C(=O)O)O[C@H](COS(=O)(=O)O)[C@@H](OS(=O)(=O)O)[C@@H]1O[C@@H]1O[C@H](C(=O)O)[C@@H](O)[C@H](O)[C@H]1O | inactive | inactive | – | inactive | 6.7% | – | – | 659 nM | – | – | – | –
6 | CC(=O)N[C@H]1[C@H](O[C@H]2[C@H](O)[C@@H](O)[C@H](O[C@@H]3[C@@H](NC(C)=O)[C@H](OCCCCCCN=[N+]=[N-])O[C@H](COS(=O)(=O)O)[C@@H]3OS(=O)(=O)O)O[C@@H]2C(=O)O)O[C@H](COS(=O)(=O)O)[C@H](OS(=O)(=O)O)[C@@H]1O[C@@H]1O[C@H](C(=O)O)[C@@H](O)[C@H](O)[C@H]1O | – | inactive | – | – | 29.6% | – | 96.3 nM | 155 nM | 365 nM | inactive | – | inactive
